Biological target: Kras G12D (Homo sapiens (Human), UniProt P01116, G12D)
Assay: HTRF-based nucleotide exchange assay detecting GTP binding to K-Ras
Type: biochemical
Settings: SOS1 (aa 564-1049), fluorescently labelled GTP, compound incubated 1 h at RT
Protocol: Kras G12D was mixed with a-GST Tb antibody (1.5× solution) and 10 uL was delivered to reaction wells. A mixture of Kras G12D/aGST-Tb Ab/compound mixture was incubated for 1 h at RT. A 3× solution of SOS1 (aa 564-1049) and fluorescently labelled GTP* was prepared in reaction buffer and 5 μL of SOS1/GTP* solution was added to reaction well to initiate the exchange reaction. An IC50 was determined using a sigmoidal dose response (variable slope) equation. Note: Assay IC50 data are designated within the following ranges: A: ≤10 nM, B: >10 nM to ≤1000 nM, C: >1000 nM

Kras G12D, sequence (P01116-2 other isoform, or with tags, fused parts or gaps G12D): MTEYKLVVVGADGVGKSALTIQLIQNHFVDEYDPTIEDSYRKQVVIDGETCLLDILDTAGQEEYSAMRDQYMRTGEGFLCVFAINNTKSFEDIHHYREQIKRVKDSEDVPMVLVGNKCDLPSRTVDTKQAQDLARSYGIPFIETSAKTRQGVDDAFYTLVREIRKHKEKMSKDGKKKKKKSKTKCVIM

Row | SMILES | IC50
1 | C#Cc1cccc2cc(O)cc(-c3ncc4c(N5C[C@@H]6C[C@H]5CN6)nc(OCC56CCCN5CCC6)nc4c3F)c12 (stereo in doubt) [Example 6, 4-(4-((1S,4S)-2,5-diazabicyclo[2.2.1]heptan-2-yl)-8-fluoro-2-((tetrahydro-1H-pyrrolizin-7a(5H)-yl)methoxy)pyrido[4,3-d]pyrimidin-7-yl)-5-ethynylnaphthalen-2-ol] | ≤ 0.01 µM
2 | C[C@@H]1CN(c2nc(OCC34CCCN3CCC4)nc3c(F)c(-c4cccc5cccc(Cl)c45)ncc23)C[C@H](C)N1 [Example 1, 7-(8-chloronaphthalen-1-yl)-4-((3R,5S)-3,5-dimethylpiperazin-1-yl)-8-fluoro-2-((tetrahydro-1H-pyrrolizin-7a(5H)-yl)methoxy)pyrido[4,3-d]pyrimidine] | > 1 µM
3 | C[C@H]1CN(c2nc(OCC34CCCN3CCC4)nc3c(F)c(-c4cccc5cccc(Cl)c45)ncc23)C[C@H](C)N1 [Example 2, 7-(8-chloronaphthalen-1-yl)-4-((3S,5S)-3,5-dimethylpiperazin-1-yl)-8-fluoro-2-((tetrahydro-1H-pyrrolizin-7a(5H)-yl)methoxy)pyrido[4,3-d]pyrimidine] | 0.01 to 1 µM
4 | Fc1c(-c2cccc3cccc(Cl)c23)ncc2c(N3C[C@H]4CC[C@@H](C3)N4)nc(OCC34CCCN3CCC4)nc12 [Example 3, 4-((1R,5S)-3,8-diazabicyclo[3.2.1]octan-3-yl)-7-(8-chloronaphthalen-1-yl)-8-fluoro-2-((tetrahydro-1H-pyrrolizin-7a(5H)-yl)methoxy)pyrido[4,3-d]pyrimidine] | ≤ 0.01 µM
5 | C#Cc1cccc2cc(O)cc(-c3ncc4c(N5CC6COCC(C5)N6)nc(OCC56CCCN5CCC6)nc4c3F)c12 [Example 4, 4-(4-(3-oxa-7,9-diazabicyclo[3.3.1]nonan-7-yl)-8-fluoro-2-((tetrahydro-1H-pyrrolizin-7a(5H)-yl)methoxy)pyrido[4,3-d]pyrimidin-7-yl)-5-ethynylnaphthalen-2-ol] | ≤ 0.01 µM
6 | Fc1c(-c2cccc3cccc(Cl)c23)ncc2c(N3CC4CNCC4C3)nc(OCC34CCCN3CCC4)nc12 [Example 5, 4-[(3aR, 6aS)-2,3,3a,4,6,6a-hexahydro-1H-pyrrolo[3,4-c]pyrrol-5-yl]-7-(8-chloro-1-naphthyl)-8-fluoro-2-(1,2,3,5,6,7-hexahydropyrrolizin-8-ylmethoxy)pyrido[4,3-d]pyrimidine] | > 1 µM
7 | C#Cc1cccc2cc(O)cc(-c3ncc4c(N5CC6CCCC(C5)N6)nc(OCC56CCCN5CCC6)nc4c3F)c12 [Example 7, 4-(4-(3,9-diazabicyclo[3.3.1]nonan-3-yl)-8-fluoro-2-((tetrahydro-1H-pyrrolizin-7a(5H)-yl)methoxy)pyrido[4,3-d]pyrimidin-7-yl)-5-ethynylnaphthalen-2-ol] | ≤ 0.01 µM
8 | C#Cc1cccc2cc(O)cc(-c3ncc4c(N5CC6CC(C5)N6)nc(OCC56CCCN5CCC6)nc4c3F)c12 [Example 8, 4-[4-(3,6-diazabicyclo[3.1.1]heptan-3-yl)-8-fluoro-2-(1,2,3,5,6,7-hexahydropyrrolizin-8-ylmethoxy)pyrido[4,3-d]pyrimidin-7-yl]-5-ethynyl-naphthalen-2-ol] | ≤ 0.01 µM

— US20250263423A1, “INHIBITORS OF RAS ONCOPROTEINS” (BridGene Biosciences, Inc., priority 2021, published 2025)
